Laboratory results from ChEMBL document CHEMBL1201862, “PubChem BioAssay data set” (2004).
Active and inactive are the calls of the source.

Tests used:
[1] = biological target: Melanin-concentrating hormone receptor 1 (Homo sapiens, UniProt Q99705); experiment: Fluorescence-based counterscreen for antagonists of the G-protein coupled receptor 7 (GPR7): cell-based high throughput dose response assay to identify antagonists of the melanin-concentrating hormone receptor 1 (MCHR1).; type: functional
Chain of Melanin-concentrating hormone receptor 1 (Q99705 whole entry): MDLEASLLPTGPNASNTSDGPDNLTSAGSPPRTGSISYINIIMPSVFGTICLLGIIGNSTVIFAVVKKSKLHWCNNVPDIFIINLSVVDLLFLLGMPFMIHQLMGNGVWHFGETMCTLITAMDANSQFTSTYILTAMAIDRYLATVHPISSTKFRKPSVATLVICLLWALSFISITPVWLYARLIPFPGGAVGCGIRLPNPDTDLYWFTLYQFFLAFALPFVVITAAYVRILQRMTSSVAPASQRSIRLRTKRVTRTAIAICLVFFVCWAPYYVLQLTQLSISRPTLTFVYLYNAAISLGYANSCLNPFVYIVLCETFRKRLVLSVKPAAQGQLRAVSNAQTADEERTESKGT

[2] = biological target: T1, Neuropeptides B/W receptor type 1 (Homo sapiens, UniProt P48145); experiment: Fluorescence-based dose response cell-based high throughput screening assay to identify antagonists of the G-protein coupled receptor 7 (GPR7). [Related pubchem assays: 1952 (Screening assay (GPR7 antagonists).), 1880 (Summary AID.)]; type: functional
T1 sequence (P48145 whole entry): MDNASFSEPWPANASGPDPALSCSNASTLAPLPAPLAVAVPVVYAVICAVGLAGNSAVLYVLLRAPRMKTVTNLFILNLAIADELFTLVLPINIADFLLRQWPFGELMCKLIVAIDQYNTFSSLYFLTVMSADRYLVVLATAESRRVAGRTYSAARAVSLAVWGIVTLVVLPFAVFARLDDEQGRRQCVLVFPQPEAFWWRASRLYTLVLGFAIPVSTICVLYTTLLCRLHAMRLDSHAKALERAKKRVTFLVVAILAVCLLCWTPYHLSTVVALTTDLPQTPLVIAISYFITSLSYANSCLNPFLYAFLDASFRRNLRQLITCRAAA

[3] = biological target: T2, Carboxy-terminal domain RNA polymerase II polypeptide A small phosphatase 1 (Homo sapiens, UniProt Q9GZU7); experiment: CTDSP1 inhibitors, concentration-response, biochemical, absorbance readout, ultra-high-throughput screen actives (AID 540297); type: functional
T2 sequence (Q9GZU7 whole entry): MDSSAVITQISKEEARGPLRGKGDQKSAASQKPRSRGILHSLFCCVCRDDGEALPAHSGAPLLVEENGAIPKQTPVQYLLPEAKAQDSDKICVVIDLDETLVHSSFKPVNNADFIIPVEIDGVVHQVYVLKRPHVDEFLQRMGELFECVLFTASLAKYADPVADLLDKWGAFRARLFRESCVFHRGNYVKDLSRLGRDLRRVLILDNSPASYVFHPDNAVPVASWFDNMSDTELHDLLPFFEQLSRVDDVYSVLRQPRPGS

[4] = biological target: Voltage-gated inwardly rectifying potassium channel KCNH2 (Homo sapiens, UniProt Q12809); experiment: concentration-dependent hERG rescue from blockers – cell-based, thallium flux, dose response (AID 2121); type: ADME
Chain of Voltage-gated inwardly rectifying potassium channel KCNH2 (Q12809 whole entry): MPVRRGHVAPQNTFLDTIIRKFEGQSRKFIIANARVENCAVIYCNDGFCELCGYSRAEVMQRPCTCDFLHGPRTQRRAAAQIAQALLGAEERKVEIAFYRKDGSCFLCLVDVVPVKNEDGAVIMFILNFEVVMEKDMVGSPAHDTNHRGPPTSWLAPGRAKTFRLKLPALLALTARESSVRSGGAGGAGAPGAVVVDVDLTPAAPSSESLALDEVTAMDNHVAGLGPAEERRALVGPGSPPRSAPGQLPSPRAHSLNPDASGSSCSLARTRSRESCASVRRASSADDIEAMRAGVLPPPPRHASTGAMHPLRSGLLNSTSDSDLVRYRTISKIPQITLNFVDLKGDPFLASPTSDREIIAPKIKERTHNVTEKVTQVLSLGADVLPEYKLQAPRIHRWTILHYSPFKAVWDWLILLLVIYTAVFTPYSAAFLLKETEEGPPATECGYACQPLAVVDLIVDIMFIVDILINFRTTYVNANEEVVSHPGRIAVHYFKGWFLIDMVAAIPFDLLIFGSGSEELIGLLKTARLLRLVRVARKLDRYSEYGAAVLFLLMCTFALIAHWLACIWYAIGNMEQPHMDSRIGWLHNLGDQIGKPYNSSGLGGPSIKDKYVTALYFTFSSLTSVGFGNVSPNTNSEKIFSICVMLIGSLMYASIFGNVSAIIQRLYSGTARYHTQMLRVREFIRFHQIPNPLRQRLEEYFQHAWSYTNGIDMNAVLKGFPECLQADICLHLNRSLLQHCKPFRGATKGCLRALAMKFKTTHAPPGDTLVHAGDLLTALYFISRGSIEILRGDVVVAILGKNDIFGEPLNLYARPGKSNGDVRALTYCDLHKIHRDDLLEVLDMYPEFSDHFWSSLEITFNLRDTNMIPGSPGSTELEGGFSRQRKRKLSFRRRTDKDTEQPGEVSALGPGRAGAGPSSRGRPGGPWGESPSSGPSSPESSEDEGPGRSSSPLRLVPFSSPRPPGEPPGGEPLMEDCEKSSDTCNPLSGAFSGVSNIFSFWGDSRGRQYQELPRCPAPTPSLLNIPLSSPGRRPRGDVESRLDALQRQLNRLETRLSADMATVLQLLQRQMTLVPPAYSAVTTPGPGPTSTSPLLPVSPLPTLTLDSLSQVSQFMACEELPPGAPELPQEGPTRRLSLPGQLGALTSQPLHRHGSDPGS

[5] = Trypanosoma cruzi growth suppression in host cells – NIH3T3 host cells, beta-gal luminescence, confirmation (AID 2044); type: functional, cell-based;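 note: intracellular parasites grown in NIH/3T3 mouse fibroblasts as host cells; luminescent beta-galactosidase reporter signal from transgenic T. cruzi replicating inside host cells; inhibitors lower the luminescence signal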
cells [6] = experiment: cells
[7] = NIH3T3 cell viability loss – ATP luminescence, mouse fibroblasts, counter-screen, dose response (AID 2010); type: functional, cell-based;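 note: cells exposed to compound for about 90 hours before reading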
[8] = biological target: Peroxisome proliferator-activated receptor gamma/Nuclear receptor corepressor 2 (Homo sapiens, UniProt P37231+Q9Y618); experiment: Counterscreen for NR2E3 inverse agonists: TR-FRET-based biochemical high throughput dose response assay to identify inverse agonists of the interaction between peroxisome proliferator-activated receptor gamma (PPARg) and nuclear receptor co-repressor 2 (NCOR2).; type: functional
[9] = biological target: Photoreceptor-specific nuclear receptor (Homo sapiens, UniProt Q9Y5X4); experiment: ligands suppressing NR2E3 nuclear receptor activity – biochemical, TR-FRET, dose response (AID 463256); type: functional
Chain of Photoreceptor-specific nuclear receptor (Q9Y5X4 whole entry): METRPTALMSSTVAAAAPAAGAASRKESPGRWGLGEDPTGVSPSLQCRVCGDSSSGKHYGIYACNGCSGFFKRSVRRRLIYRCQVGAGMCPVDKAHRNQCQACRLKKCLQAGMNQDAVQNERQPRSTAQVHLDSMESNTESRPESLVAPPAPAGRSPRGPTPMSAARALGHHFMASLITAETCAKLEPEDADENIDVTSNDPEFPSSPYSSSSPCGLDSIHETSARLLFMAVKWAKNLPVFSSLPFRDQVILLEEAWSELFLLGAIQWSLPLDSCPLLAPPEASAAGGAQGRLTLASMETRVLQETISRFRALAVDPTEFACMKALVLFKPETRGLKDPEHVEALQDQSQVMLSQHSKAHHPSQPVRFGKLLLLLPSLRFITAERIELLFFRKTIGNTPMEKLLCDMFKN

BJ [10] = experiment: growth inhibition of engineered Ras-driven BJ cells – cell-based, alamar blue fluorescence, cherrypicked samples, dose response (AID 2631); type: functional; conditions: Homo sapiens;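 note: confirmatory dose-response assay in RAS-dependent BJ fibroblasts engineered with TERT, LT and ST, with cytotoxicity read by fluorescence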
BJ [11] = experiment: cells; type: functional, cell-based; conditions: Homo sapiens
[12] = DRD fibroblast viability loss – cell-based, non-viral oncogenic, luminescence, dose response (AID 1934); type: functional; conditions: Homo sapiens
[13] = HEK-293T viability loss after treatment – luminescence, T-cell screen hits, cytotoxicity control for TCR NF-kB inhibitor project, dose response (AID 489026); type: functional, cell-based;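 note: cells exposed to compound about 14 hours before the viability readout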
[14] = alpha-synuclein stem-loop translation blockers – luminescence, H4 neuroglioblastoma cells, dose confirmation, confirmation (AID 2454); type: functional, cell-based;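 note: H4 neuroglioblastoma cells carrying an alpha-synuclein 5'UTR luciferase reporter; potency for inhibition of the luciferase signal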
BJ [15] = experiment: BJ-TERT-LT-ST fibroblast viability loss – cell-based, RAS-independent, luminescence, dose response (AID 1935); type: functional; conditions: Homo sapiens;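 note: BJ fibroblasts immortalized with TERT plus LT and ST oncogenes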
cells [16] = type: functional, cell-based
BJ [17] = experiment: BJ-TERT fibroblast viability loss – cell-based, RAS-independent, luminescence, dose response (AID 1933); type: functional; conditions: Homo sapiens
[18] = luciferase reporter signal reduction – luminescence, H4-C neuroglioblastoma cells, dose response (AID 2458); type: functional, cell-based;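 note: H4 neuroglioblastoma cells stably carrying a luciferase reporter gene fusion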
[19] = Luminescence Cell-Based Dose Response HTS to Identify Inhibitors of 5'UTR Stem-Loop Driven Prion Protein mRNA Translation in H4 Neuroglioblastoma Cells. [Related pubchem assays: 1827 (Project Summary), 1813 (Primary HTS)]; type: functional
[20] = alpha-synuclein stem-loop luciferase translation blockers – H4 neuroglioma cells, luminescence, confirmation (AID 1988); type: functional, cell-based
[21] = luciferase reporter signal suppression in cells – H4 neuroglioma cells, luminescence, dose response (AID 1990); type: functional, cell-based
[22] = biological target: T3, Fructose-bisphosphate aldolase (Mycobacterium tuberculosis, UniProt P9WQA3); experiment: Fluorescence-based biochemical high throughput dose response assay for inhibitors of the fructose-bisphosphate aldolase (FBA) of M. tuberculosis.; type: functional
T3 sequence (P9WQA3 whole entry): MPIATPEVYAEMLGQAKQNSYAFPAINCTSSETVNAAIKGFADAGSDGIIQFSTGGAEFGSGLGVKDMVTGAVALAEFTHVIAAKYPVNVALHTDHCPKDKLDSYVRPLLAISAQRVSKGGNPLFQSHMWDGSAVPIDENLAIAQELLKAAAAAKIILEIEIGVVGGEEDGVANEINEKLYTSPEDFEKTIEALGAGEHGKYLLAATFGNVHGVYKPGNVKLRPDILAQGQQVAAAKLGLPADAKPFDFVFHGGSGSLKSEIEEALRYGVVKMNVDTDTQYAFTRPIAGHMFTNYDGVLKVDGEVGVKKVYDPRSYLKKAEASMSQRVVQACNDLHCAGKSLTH

Prothrombin = Prothrombin (Homo sapiens, UniProt P00734); experiment: Thrombin 1536 HTS Dose Response Confirmation. [Related pubchem assays: 1046 (Thrombin 1536 HTS; hits were confirmed in this assay)]; type: functional
[23] = mitochondrial function rescue without frataxin homolog – Friedreich's ataxia, plus single-dose screen, dose response (AID 1465); type: functional;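 note: yeast depleted of Yfh1p frataxin homolog grown on glycerol needing respiration; WST-1 tetrazolium dye reduction as measure of cellular dehydrogenase metabolic activity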
[24] = viability loss in HepG2 hepatoma cells – cell-based, ATP luminescence, cherry-pick, activator set 2, cytotoxicity control, dose response (AID 1053143); type: functional
[25] = biological target: T4, Zinc finger protein mex-5 (Caenorhabditis elegans, UniProt Q9XUB2); experiment: potency of MEX-5 RNA-binding blockers – biochemical, C. elegans, fluorescence polarization, dose response (AID 1960)
T4 sequence (Q9XUB2 whole entry): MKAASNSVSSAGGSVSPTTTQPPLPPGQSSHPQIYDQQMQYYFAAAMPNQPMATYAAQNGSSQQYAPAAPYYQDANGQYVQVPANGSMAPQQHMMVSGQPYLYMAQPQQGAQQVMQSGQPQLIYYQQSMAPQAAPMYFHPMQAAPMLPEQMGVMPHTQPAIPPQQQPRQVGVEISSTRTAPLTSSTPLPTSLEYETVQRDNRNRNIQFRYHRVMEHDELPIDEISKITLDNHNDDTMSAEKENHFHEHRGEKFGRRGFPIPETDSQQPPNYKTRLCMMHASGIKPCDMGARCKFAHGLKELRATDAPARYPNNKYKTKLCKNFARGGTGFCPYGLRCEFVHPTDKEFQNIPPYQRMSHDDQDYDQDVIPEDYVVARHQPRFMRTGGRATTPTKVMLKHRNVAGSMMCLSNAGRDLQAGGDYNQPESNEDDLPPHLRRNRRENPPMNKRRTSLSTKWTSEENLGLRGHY

Bcl-2-like protein 1 = Bcl-2-like protein 1 (Homo sapiens, UniProt Q07817); experiment: blockers of BCLXL peptide binding – biochemical, fluorescence polarization, 1536-well, selectivity assay for MCL1 inhibitor project, dose response (AID 2218)
Chain of Bcl-2-like protein 1 (Q07817 whole entry): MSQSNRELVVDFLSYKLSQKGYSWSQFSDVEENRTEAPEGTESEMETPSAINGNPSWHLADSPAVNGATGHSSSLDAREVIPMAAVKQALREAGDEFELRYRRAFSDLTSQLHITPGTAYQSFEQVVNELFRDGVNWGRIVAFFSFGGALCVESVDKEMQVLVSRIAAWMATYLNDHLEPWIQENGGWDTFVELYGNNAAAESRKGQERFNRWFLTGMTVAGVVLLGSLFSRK

[26] = biological target: T5, Induced myeloid leukemia cell differentiation protein Mcl-1 (Homo sapiens, UniProt Q07820); type: functional
T5 sequence (Q07820 whole entry): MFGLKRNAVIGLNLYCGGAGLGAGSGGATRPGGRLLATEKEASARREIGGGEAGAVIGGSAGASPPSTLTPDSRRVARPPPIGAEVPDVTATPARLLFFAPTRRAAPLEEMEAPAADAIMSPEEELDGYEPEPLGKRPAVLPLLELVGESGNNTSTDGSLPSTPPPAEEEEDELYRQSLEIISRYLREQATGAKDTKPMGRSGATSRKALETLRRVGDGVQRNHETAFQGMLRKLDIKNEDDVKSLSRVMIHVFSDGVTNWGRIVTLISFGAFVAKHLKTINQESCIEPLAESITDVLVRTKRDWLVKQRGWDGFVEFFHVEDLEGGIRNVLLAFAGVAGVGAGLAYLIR

[27] = biological target: Glucose-6-phosphate 1-dehydrogenase (Homo sapiens, UniProt P11413); experiment: inhibition of Homo sapiens G6PD, dose series – biochemical, fluorescence, selectivity assay for P. falciparum G6PD inhibitor project, dose response (AID 504792); type: functional
Chain of Glucose-6-phosphate 1-dehydrogenase (P11413 whole entry, the tested form may be a part): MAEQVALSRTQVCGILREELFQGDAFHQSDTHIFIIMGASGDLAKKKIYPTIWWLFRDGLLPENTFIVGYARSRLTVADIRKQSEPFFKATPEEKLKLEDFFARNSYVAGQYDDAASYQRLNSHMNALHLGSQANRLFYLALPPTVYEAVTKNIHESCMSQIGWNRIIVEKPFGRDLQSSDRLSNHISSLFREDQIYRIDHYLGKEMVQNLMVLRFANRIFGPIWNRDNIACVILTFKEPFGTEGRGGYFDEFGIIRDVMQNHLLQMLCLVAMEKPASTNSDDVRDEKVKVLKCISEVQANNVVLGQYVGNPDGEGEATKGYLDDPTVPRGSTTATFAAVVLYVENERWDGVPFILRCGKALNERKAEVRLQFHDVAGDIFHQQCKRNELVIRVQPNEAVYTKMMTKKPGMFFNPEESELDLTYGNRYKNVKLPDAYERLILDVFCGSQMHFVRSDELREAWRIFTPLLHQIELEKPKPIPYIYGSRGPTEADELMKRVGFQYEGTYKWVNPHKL

[28] = biological target: T6, RNA-binding protein pos-1 (Caenorhabditis elegans, UniProt G5EF15); experiment: disruptors of C. elegans POS-1 RNA interaction – biochemical, fluorescence polarization, dose response (AID 1964);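 note: purified POS-1 fused to maltose binding protein made in E. coli; potency of compounds blocking POS-1 binding to fluorescent RNA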
T6 sequence (G5EF15 whole entry): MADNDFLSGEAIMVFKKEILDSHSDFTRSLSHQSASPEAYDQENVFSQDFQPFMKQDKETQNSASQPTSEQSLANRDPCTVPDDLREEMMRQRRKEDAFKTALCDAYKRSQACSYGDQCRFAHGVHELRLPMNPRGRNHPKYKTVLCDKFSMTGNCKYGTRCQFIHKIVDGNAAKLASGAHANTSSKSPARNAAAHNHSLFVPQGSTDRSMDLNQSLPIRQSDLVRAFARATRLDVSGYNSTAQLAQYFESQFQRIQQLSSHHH

Vero = experiment: viability of Vero cells under compound – cytotoxicity control for flavivirus capping enzyme inhibitors (AID 588742); type: functional; conditions: Chlorocebus sabaeus
[29] = viability loss in THP-1 monocytes – THP-1 cells, cytotoxicity control for Vif-APOBEC3G degradation inhibitor project, dose response (AID 1117359); type: functional; conditions: THP-1
[30] = biological target: T5, Induced myeloid leukemia cell differentiation protein Mcl-1; experiment: blockers of MCL1 binding to BIM peptide – biochemical, fluorescence polarization, BIM-BH3 peptide, 1536-well, dose response (AID 2217)
[31] = HGIII-sPLA2 enzyme inhibition potency – biochemical, QFRET, IC50, dose response (AID 743457);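 note: green fluorescence rise as the enzyme cleaves BODIPY PC-A2 in liposomes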
Genome polyprotein = Genome polyprotein (dengue virus type 2, UniProt P29990); experiment: flavivirus cap methylation enzyme inhibition – biochemical, confirmation dose response, primary screen (AID 588689); type: functional
Chain of Genome polyprotein (P29990 2492-3391 limits assumed): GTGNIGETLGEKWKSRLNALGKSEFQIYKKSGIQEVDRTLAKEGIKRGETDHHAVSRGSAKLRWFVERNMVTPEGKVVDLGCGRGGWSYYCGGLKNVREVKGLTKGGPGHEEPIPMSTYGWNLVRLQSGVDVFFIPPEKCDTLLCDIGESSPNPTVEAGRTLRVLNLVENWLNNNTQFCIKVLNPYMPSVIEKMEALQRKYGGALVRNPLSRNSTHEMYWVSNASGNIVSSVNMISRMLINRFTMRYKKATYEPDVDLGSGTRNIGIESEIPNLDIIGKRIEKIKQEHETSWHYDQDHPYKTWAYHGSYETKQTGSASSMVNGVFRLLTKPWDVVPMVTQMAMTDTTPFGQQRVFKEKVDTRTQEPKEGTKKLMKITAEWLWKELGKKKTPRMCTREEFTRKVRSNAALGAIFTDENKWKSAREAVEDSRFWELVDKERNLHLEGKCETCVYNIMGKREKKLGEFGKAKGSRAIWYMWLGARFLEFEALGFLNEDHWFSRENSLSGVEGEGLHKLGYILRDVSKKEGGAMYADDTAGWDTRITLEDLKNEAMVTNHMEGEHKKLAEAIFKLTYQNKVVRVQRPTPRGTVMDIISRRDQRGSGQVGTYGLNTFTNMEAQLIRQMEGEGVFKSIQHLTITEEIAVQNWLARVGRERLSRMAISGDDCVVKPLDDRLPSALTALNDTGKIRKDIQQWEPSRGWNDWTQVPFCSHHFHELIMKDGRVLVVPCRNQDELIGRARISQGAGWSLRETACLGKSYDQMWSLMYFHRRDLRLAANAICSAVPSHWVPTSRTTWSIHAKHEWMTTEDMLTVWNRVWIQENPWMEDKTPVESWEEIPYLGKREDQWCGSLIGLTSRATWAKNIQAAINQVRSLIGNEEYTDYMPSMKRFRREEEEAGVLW

CCc1ccc(C2CC(c3ccccc3Cl)Nc3nc(N)nn32)cc1 (centres undefined)
IC50 [1]: 19.6 µM (not active)
IC50 [2]: 5.58 µM (active)

Cc1ccccc1NC(=O)Cn1nnc(S(=O)(=O)c2ccc(C(C)(C)C)cc2)c1N
IC50 [1]: > 43.8 µM (not active)
IC50 [2]: > 43.8 µM (not active)
IC50 [3]: 7.74 µM (active)

CCn1c(O)c(N=NC2=NC(=O)CS2)c2ccccc21
EC50 [4]: 4.83 µM (active)

CN(C)CCCN(C(=O)COc1ccc(Cl)cc1)c1nc2cc3c(cc2s1)OCCO3
EC50 [5]: < 0.1 µM (active)
EC50 (cells [6]): 0.069 µM (active)
EC50 [7]: > 60 µM (not active)

O=C(Nc1ccc(Cl)cc1)c1ccc(-c2ccccn2)s1
IC50 [8]: 10.9 µM (not active)
IC50 [9]: 8.84 µM (active)

O=C(NCC(c1cccnc1)N1CCN(c2ccccc2)CC1)Oc1ccccc1 (centres undefined)
EC50 [5]: < 0.1 µM (active)
EC50 (cells [6]): 0.052 µM (active)
EC50 [7]: > 30 µM (not active)

N#Cc1ccc(-c2cccs2)nc1SCc1cccnc1
EC50 (BJ [10]): 0.188 µM (active)
EC50 (BJ [11]): 15 µM (active)
EC50 [12]: 11.5 µM (inconclusive)
IC50 [13]: > 80 µM (inactive)
EC50 [14]: > 12 µM (not active)
EC50 (BJ [15]): 3.66 µM (inconclusive)
EC50 (cells [16]): 1.24 µM (active)
EC50 (BJ [17]): 7.55 µM (inconclusive)
EC50 [18]: 0.841 µM (active)
EC50 [19]: 0.156 µM (active)
EC50 [20]: < 0.1 µM (active)
EC50 [21]: 5.46 µM (active)
IC50 [22]: > 1.11 µM (active)

COC(=O)c1nnc(NC(=O)c2ccc(F)cc2)[nH]1
IC50 (Prothrombin): 0.297 µM (active)

CCN(CC)c1ccc(NC(=S)NC(=O)c2cccs2)cc1
EC50 [4]: 1.24 µM (active)

CCC(=O)n1nc(-c2ccc(OC)cc2)nc1NCc1cccs1
IC50 (Prothrombin): 1.48 µM (active)

O=C(NNc1nc2ccc(F)cc2s1)c1cccc(F)c1
EC50 [5]: 3.84 µM (active)
EC50 [7]: 6.48 µM (active)
EC50 [23]: > 100 µM (active)

C=CC/N=c1\scc(-c2ccco2)n1/N=C/c1ccc(O)c(O)c1O
AC50 [24]: 26 µM (active)
EC50 [25]: 2.68 µM (active)
IC50 (Bcl-2-like protein 1): > 109 µM (not active)
IC50 [26]: 2.81 µM (not active)
IC50 [27]: > 80 µM (inactive)
EC50 [28]: 40.6 µM (active)
CC50 (Vero): 22.8 µM (active)
CC50 [29]: > 40 µM (active)
IC50 [30]: 2.94 µM (active)
IC50 [31]: 49.6 µM (inactive)
IC50 (Genome polyprotein): 83.8 µM (active)
